Data taken from ChEMBL document CHEMBL1201862, “PubChem BioAssay data set” (2004).
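1) Cells in 96-well plates. 2) Compound, 48 h, 5 concentrations. 3) Linear interpolation between surrounding doses. 4) Unreached endpoint = highest concentration. GI50 = concentration required for 50% inhibition of growth.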 Calls of active or inactive are those of the source. Rule as the data show it: active = GI50 up to about 1.1 µM and inactive = higher.

What was measured:
Test in all cases: NCI anticancer screen, dose series, 48 h
CCRF-CEM = tested on: CCRF-CEM
HCC 2998 = tested on: HCC 2998
KM12 = tested on: KM12
NCI/ADR-RES = tested on: NCI/ADR-RES
DU-145 = tested on: DU-145
OVCAR-5 = tested on: OVCAR-5
PC-3 = tested on: PC-3
SK-MEL-28 = tested on: SK-MEL-28
NCI-H522 = tested on: NCI-H522
A549 = tested on: A549
OVCAR-4 = tested on: OVCAR-4
K562 = tested on: K562
MDA-N = tested on: MDA-N
MCF7 = tested on: MCF7
SNB-75 = tested on: SNB-75
EKVX = tested on: EKVX
SF-268 = tested on: SF-268
OVCAR-8 = tested on: OVCAR-8
RPMI-8226 = tested on: RPMI-8226
SK-MEL-2 = tested on: SK-MEL-2

SMILES	GI50 (CCRF-CEM)	GI50 (HCC 2998)	GI50 (KM12)	GI50 (NCI/ADR-RES)	GI50 (DU-145)	GI50 (OVCAR-5)	GI50 (PC-3)	GI50 (SK-MEL-28)	GI50 (NCI-H522)	GI50 (A549)	GI50 (OVCAR-4)	GI50 (K562)	GI50 (MDA-N)	GI50 (MCF7)	GI50 (SNB-75)	GI50 (EKVX)	GI50 (SF-268)	GI50 (OVCAR-8)	GI50 (RPMI-8226)	GI50 (SK-MEL-2)
O=C1C(=Cc2cccc(Cl)c2)N=C(c2ccccc2)N1n1c(-c2ccccc2)nc2ccccc2c1=O	22.9 µM (inactive)	30.7 µM (inactive)	9.55 µM (inactive)	30.9 µM (inactive)	52.2 µM (inactive)	67.6 µM (inactive)	28.8 µM (inactive)	50.2 µM (inactive)	16.4 µM (inactive)	32.9 µM (inactive)	42.3 µM (inactive)	30.3 µM (inactive)	33.8 µM (inactive)	25.9 µM (inactive)	29.9 µM (inactive)	28.4 µM (inactive)	32.4 µM (inactive)	28.7 µM (inactive)	40.8 µM (inactive)	26.2 µM (inactive)
CC(C)CC(NC(=O)C(COc1ccc([N+](=O)[O-])cc1)Cc1ccccc1)C(=O)Nc1ccccc1 (centres undefined)	7.26 µM (inactive)	13.1 µM (inactive)	5.85 µM (inactive)	12.7 µM (inactive)	> 100 µM (inactive)	40.3 µM (inactive)	38.7 µM (inactive)	–	12.5 µM (inactive)	16.1 µM (inactive)	2.35 µM (inactive)	19.2 µM (inactive)	10.3 µM (inactive)	25.8 µM (inactive)	2.38 µM (inactive)	23.6 µM (inactive)	–	6.98 µM (inactive)	40.5 µM (inactive)	21.7 µM (inactive)
COc1ccc(-c2cc(-c3ccc(Nc4ccnc5cc(Cl)ccc45)cc3)nc(N)c2C#N)c2ccccc12	> 100 µM (inactive)	> 100 µM (inactive)	> 100 µM (inactive)	> 100 µM (inactive)	> 100 µM (inactive)	> 100 µM (inactive)	> 100 µM (inactive)	> 100 µM (inactive)	> 100 µM (inactive)	> 100 µM (inactive)	> 100 µM (inactive)	> 100 µM (inactive)	> 100 µM (inactive)	> 100 µM (inactive)	> 100 µM (inactive)	> 100 µM (inactive)	> 100 µM (inactive)	> 100 µM (inactive)	> 100 µM (inactive)	> 100 µM (inactive)
Oc1ccc(Cn2c(-c3ccc(O)cc3)nc3ccccc32)cc1	> 100 µM (inactive)	> 100 µM (inactive)	> 100 µM (inactive)	> 100 µM (inactive)	> 100 µM (inactive)	> 100 µM (inactive)	> 100 µM (inactive)	> 100 µM (inactive)	> 100 µM (inactive)	> 100 µM (inactive)	> 100 µM (inactive)	> 100 µM (inactive)	> 100 µM (inactive)	> 100 µM (inactive)	> 100 µM (inactive)	> 100 µM (inactive)	> 100 µM (inactive)	> 100 µM (inactive)	> 100 µM (inactive)	> 100 µM (inactive)
O=C1C(Br)=CC2(C=C1Br)CCNC1=C2C2=NCCc3c[nH]c(c32)C1=O	0.0198 µM (active)	0.506 µM (active)	0.516 µM (active)	0.164 µM (active)	0.811 µM (active)	0.69 µM (active)	0.307 µM (active)	0.163 µM (active)	0.0176 µM (active)	0.951 µM (active)	0.0794 µM (active)	0.028 µM (active)	0.102 µM (active)	0.0266 µM (active)	0.973 µM (active)	0.231 µM (active)	0.347 µM (active)	0.0736 µM (active)	0.0355 µM (active)	0.183 µM (active)
C/C1=C\CC[C@@]2(C)O[C@@H]2C[C@@H]2[C@H](C/C(C)=C/CC1)OC(=O)C21CCN=N1 (some centres undefined)	15 µM (inactive)	> 75 µM (inactive)	> 75 µM (inactive)	> 75 µM (inactive)	> 75 µM (inactive)	> 75 µM (inactive)	> 75 µM (inactive)	> 75 µM (inactive)	72.4 µM (inactive)	51.2 µM (inactive)	61.8 µM (inactive)	6.98 µM (inactive)	> 75 µM (inactive)	> 75 µM (inactive)	25.9 µM (inactive)	> 75 µM (inactive)	> 75 µM (inactive)	> 75 µM (inactive)	31.3 µM (inactive)	> 75 µM (inactive)
COC1CC(OC2C(C)OC(OC3C(C)OC(OC4C(O)CC(O[C@H]5CC[C@@]6(C)C(=CC[C@]7(O)[C@@H]6C[C@@H](OC(C)=O)[C@@]6(C)[C@]7(O)CC[C@@]6(O)C(C)=O)C5)OC4C)CC3OC)CC2OC)OC(C)C1O (some centres undefined)	> 12.5 µM (inactive)	> 12.5 µM (inactive)	> 12.5 µM (inactive)	> 12.5 µM (inactive)	> 12.5 µM (inactive)	> 12.5 µM (inactive)	> 12.5 µM (inactive)	–	> 12.5 µM (inactive)	> 12.5 µM (inactive)	> 12.5 µM (inactive)	> 12.5 µM (inactive)	> 12.5 µM (inactive)	> 12.5 µM (inactive)	> 12.5 µM (inactive)	> 12.5 µM (inactive)	> 12.5 µM (inactive)	> 12.5 µM (inactive)	> 12.5 µM (inactive)	> 12.5 µM (inactive)
COc1cc2c(cc1O)C(Cc1ccc(OCc3ccccc3)c(OCc3ccccc3)c1)N(C(=O)NCCc1ccccc1)CC2 (centres undefined)	15 µM (inactive)	86.9 µM (inactive)	> 100 µM (inactive)	> 100 µM (inactive)	> 100 µM (inactive)	> 100 µM (inactive)	54.7 µM (inactive)	–	2.88 µM (inactive)	20.8 µM (inactive)	78.9 µM (inactive)	74.3 µM (inactive)	> 100 µM (inactive)	14.8 µM (inactive)	> 100 µM (inactive)	> 100 µM (inactive)	> 100 µM (inactive)	> 100 µM (inactive)	10.4 µM (inactive)	> 100 µM (inactive)
c1cc2nnc1SCCCSc1ccc(nn1)SCCCSc1ccc(nn1)SCCCS2	> 100 µM (inactive)	> 100 µM (inactive)	> 100 µM (inactive)	> 100 µM (inactive)	> 100 µM (inactive)	> 100 µM (inactive)	> 100 µM (inactive)	> 100 µM (inactive)	> 100 µM (inactive)	> 100 µM (inactive)	> 100 µM (inactive)	> 100 µM (inactive)	> 100 µM (inactive)	> 100 µM (inactive)	28.6 µM (inactive)	–	92 µM (inactive)	> 100 µM (inactive)	> 100 µM (inactive)	83.8 µM (inactive)
CC(C)(C)n1c(=O)n2c(-c3ccccc3)c(-c3ccccc3)n2c1=O	–	49.7 µM (inactive)	> 100 µM (inactive)	> 100 µM (inactive)	> 100 µM (inactive)	> 100 µM (inactive)	44.7 µM (inactive)	> 100 µM (inactive)	17.5 µM (inactive)	56.9 µM (inactive)	72.6 µM (inactive)	1.24 µM (inactive)	> 100 µM (inactive)	56.6 µM (inactive)	> 100 µM (inactive)	> 100 µM (inactive)	> 100 µM (inactive)	> 100 µM (inactive)	17.1 µM (inactive)	28.8 µM (inactive)
